Where a SMILES comes first, the peptide text is derived from it. The star is where a group is joined. Palmitoyl = CCCCCCCCCCCCCCCC(=O)*
Key:
[1] = target: T1, PAR1 (Homo sapiens, UniProt P25116); experiment: Human platelet aggregation, PAR1 agonist SFLLRN; format: cell-based; conditions: gel filtered human platelets, SFLLRN 2.5 μM
T1 construct: Platelets were isolated from platelet rich plasma (PRP) using Sepharose 2B columns; endogenous in cells; host or cells: human platelets from healthy donors, gel-filtered
T1 sequence (P25116 22-425): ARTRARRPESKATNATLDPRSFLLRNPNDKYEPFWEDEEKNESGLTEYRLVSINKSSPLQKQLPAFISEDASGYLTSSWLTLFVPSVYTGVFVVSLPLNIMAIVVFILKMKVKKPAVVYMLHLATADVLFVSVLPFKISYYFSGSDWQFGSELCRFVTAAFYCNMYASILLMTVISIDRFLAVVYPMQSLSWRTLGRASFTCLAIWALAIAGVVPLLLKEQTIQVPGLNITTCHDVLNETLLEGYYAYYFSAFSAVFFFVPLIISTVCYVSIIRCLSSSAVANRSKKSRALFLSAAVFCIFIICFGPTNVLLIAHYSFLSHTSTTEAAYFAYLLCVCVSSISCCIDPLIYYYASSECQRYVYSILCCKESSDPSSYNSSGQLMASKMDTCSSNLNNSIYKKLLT
Method: A, Depiction of the mechanism of action of the cell-penetrating PZ-128 pepducin compound targeting the third intracellular loop (red) of PAR1. B, The NMR structure of PZ-128 was determined by simulated annealing methods using 210 distance restraints and included restraints to the proximal 3 hydrocarbons of the lipid. […] D, PZ-128 inhibits PAR1-dependent platelet aggregation. Gel filtered human platelets were treated with various concentrations of PZ-128 and then challenged with the PAR1 agonist SFLLRN (2.5 μM), 20 μM ADP, 200 μM AYPGKF or 1 mg/ml Ristocetin. E, Human platelets were treated with 3 μM PZ-128, 3 μM RWJ-56110, or 5% dextrose vehicle before the addition of various concentrations of thrombin (n=3-5).
PZ-128 also markedly right-shifted thrombin-induced aggregation by 5-fold. By comparison, the small molecule RWJ-56110 which antagonizes PAR1 at the extracellular ligand-binding site gave a 2-fold right shift in the thrombin activation curve of human platelets.
Whole blood from healthy donors was collected into a 30 ml syringe containing sodium citrate (0.4% vol/vol final). Platelets were isolated from platelet rich plasma (PRP) using Sepharose 2B columns in modified PIPES buffer.

[2] = tested on: guinea pig platelets (ADP); experiment: Guinea pig ex vivo platelet aggregation to ADP after iv infusion; format: in vivo; conditions: 3 or 6 mg/kg iv, 20 μM ADP
Method: PZ-128 or 5% dextrose USP vehicle was infused for 10 min into the jugular vein of male and female guinea pigs (0.55-0.65 kg). A-C, At the 15 min time point, whole blood was collected by cardiac puncture in 100 μg/ml PPACK/4% Na-citrate (final) anti-coagulant and platelet rich plasma (PRP) prepared and aggregation measurements were performed. […] B-C, PRP obtained at the 15 min time point after infusion with vehicle, 3 mg/kg PZ-128 or 6 mg/kg PZ128 was challenged with 2.5 μM SFLLRN, 20 μM ADP or 20 μM thromboxane mimetic, U46119. Individual data points (n=3) are overlayed on bar graphs depicting mean±SD. […] Data in B-D were analyzed by the non-parametric Kruskal-Wallis test with the Dunn's multiple pairwise comparison post-test.
PZ-128 micelles were delivered by internal jugular vein infusions over 10 min.
Guinea pigs weighing 600-650 g were used for platelet aggregation experiments. PZ-128 micelles (3 or 6 mg/kg) were administered by a 10 min intravenous infusion, and blood was collected by cardiac puncture into sodium citrate (0.4% vol/vol final) 5 minutes after cessation of the infusion. PRP was prepared and PPACK added to a final concentration of 100 μg/ml. PRP was calcified with 2.5 mM CaCl2 and aggregation was performed as described above.

[3] = Pharmacokinetics of PZ-128 in baboon plasma (LC/MS/MS); format: in vivo
Method: A-C, Male baboons (10-12 kg) were administered 1, 3 or 6 mg/kg PZ-128, or 5% dextrose USP vehicle by iv infusion and blood collected into 100 μg/ml PPACK anticoagulant at 0, 1, 2, 6, or 24 h time points. Light transmission platelet aggregometry was performed with platelet rich plasma with the indicated agonists (SFLLRN for PAR1, AYPGKF for PAR4 and ADP for P2Y12 and P2Y1). Data are reported as mean±SD (n=3-7) relative to time 0 controls (0%) and were analyzed by repeated measures one-way ANOVA with Bonferroni post-test correction; *P<0.05, **P<0.01 relative to time 0. Global P values were >0.05 for 1 mg/kg, 0.004 for 3 mg/kg, <0.0001 for 6 mg/kg. D, Pharmacokinetics of 3 and 6 mg/kg 45-min iv infusions of PZ-128 in male baboons. Plasma PZ-128 levels were measured by LC/MS/MS at 9 sequential time points: baseline, 15 min, 30 min, 1 h, 2 h, 4 h, 8 h, 24 h and 48 h after the start of infusion. Open symbols indicated plasma concentrations that were under the measurement threshold (5 ng/ml).
The maximal plasma concentration of PZ-128 was 14 μmol/L at the 6 mg/kg dose and 5.6 μmol/L for the 3 mg/kg dose. […] The pharmacokinetic and anti-platelet pharmacodynamic properties of PZ-128 micelles indicate that this lipopeptide reaches maximal activity during and immediately after intravenous infusion and is completely eliminated by the next day.
Various doses of PZ-128 micelles were infused intravenously for 45 min to baboons. At sequential time points, whole blood was drawn into 3.2% citrate buffer and immediately centrifuged at 3000 rpm for 10 min. Platelet-poor plasma (PPP) samples were harvested and stored at −80° C. PZ-128 drug levels in PPP samples were determined was using an API 4000 LC/MS/MS system (Agilux Laboratories, Worcester, Mass.).

[4] = tested on: baboon arterial thrombosis (platelet deposition); experiment: Baboon arterial-venous shunt Dacron graft thrombosis; format: in vivo, baboon (Papio anubis)
Method: 10-14 kg baboons were administered 3 mg/kg or 6 mg/kg PZ-128 by a 45 min iv infusion versus 5% dextrose vehicle (n=2-6). A, Net platelet accumulation was measured during the first 60 minutes of thrombus growth on a femoral arterio-venous Dacron graft (4 mm ID) inserted between silicone rubber tubing segments comprising a high-flow shunt. Blood flow was maintained at 100 ml/min by distal clamping the shunt. Autologous platelets were radiolabeled with indium-111 (1 mCi), and reinjected into the animals before thrombosis experiments. B, Deposition of platelets (mean±SD) was quantified in the head plus tail regions of the thrombus by 111Indium-labeled platelet imaging with 5-minute data acquisition periods starting at 60 min after initiation of the infusion. Statistical significance was determined using a variance stabilizing LN (natural log) transformation and a repeated measures mixed effects model with an autoregressive covariance structure. Subjects (individual baboons) were included in the model as a random effect. P=0.606 for 3 mg/kg vs vehicle and P=0.0028 for 6 mg/kg vs vehicle.
Baboon arterial thrombosis experiments were conducted to determine whether the PZ-128 micelles had the potential to inhibit arterial thrombosis in primates. An arterial-venous shunt equipped with a Dacron vascular graft with an internal lumen diameter of 4 mm at a high flow rate of 100 ml/min was used. Thrombogenesis was assessed by measuring platelet content of the head and tail regions of the developing thrombus (FIG. 4A) and quantified by ^111Indium-labeled platelet imaging over 60 min. PZ-128 micelles at a dose of 1 mg/kg had no effect on platelet-thrombus deposition in the baboon.
Non-terminal thrombosis and platelet aggregation studies were performed on 12 healthy male baboons (Papio anubis) weighing 9-12 kg at the Oregon National Primate Research Center (ONPRC). […] Platelet counts and hematocrit were measured immediately. […]

Extent of inhibition of human platelet aggregation in response to SFLLRN [1]: completely inhibited
IC50 ([1]; read-out: IC50, inhibition of human platelet aggregation in response to PAR1 agonist SFLLRN): 0.5 µM
Plasma half life ([3]; 3 and 6 mg/kg iv infusion): 50 to 80 min
Plasma level at late time points ([3]; 24-48 h, measurement threshold 5 ng/ml): not detectable
Clearance from plasma ([3]; by 8 h): nearly completely cleared
half-life ([3]; male, plasma, iv, 3 and 6 mg/kg iv infusion): 50 to 81 min
Structure (SMILES): CCCCCCCCCCCCCCCC(=O)N[C@@H](CCCCN)C(=O)N[C@@H](CCCCN)C(=O)N[C@@H](CO)C(=O)N[C@@H](CCCNC(=N)N)C(=O)N[C@@H](C)C(=O)N[C@@H](CC(C)C)C(=O)N[C@@H](Cc1ccccc1)C(N)=O [PZ-128, palmitate-KKSRALF-NH2] (Palmitoyl-KKSRALF-NH2)
Effect on ex vivo aggregation to ADP [2]: no effect
Effect on platelet-thrombus deposition ([4]; 1 mg/kg): no effect
Effect against platelet arterial thrombus formation vs vehicle ([4]; 3 mg/kg iv infusion, P=0.606): not significant
Effect against platelet arterial thrombus formation vs vehicle ([4]; 6 mg/kg iv infusion, P=0.0028): significant protective effect

Reference: US9878054B2, “Polypeptide and lipophilic moiety conjugate compositions, formulations, and uses related thereto” (Tufts Medical Center, Inc., priority 2012, dated 2018)
